Columns and labels:
KURAMOCHI = test: drug sensitivity score (DSS2) on cancer cell count; higher = more sensitive; extreme values may be limits of the assay; settings: 72 h
Method in brief: (§1)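 Ovarian cancer cells grown alone or 1:1 with lung or skin fibroblasts in direct co-culture were treated for 72 h on 384-well plates carrying 528 approved and investigational compounds at 5 concentrations. Fixed cells were stained for CK8/18 with Hoechst and imaged to count cancer cells. A drug sensitivity score was then derived in Breeze from logistic curve fits.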

OVCAR8 = test: as above; settings: 72 h
Method in brief: as §1

[1] = co-cultured fibroblast: BJHTERT
[2] = co-cultured fibroblast: none (monoculture)

Structure (SMILES) | drug sensitivity score (KURAMOCHI; [1]) [DSS] | drug sensitivity score (KURAMOCHI; co-cultured fibroblast: WI38) [DSS] | drug sensitivity score (KURAMOCHI; [2]) [DSS] | drug sensitivity score (OVCAR8; [1]) [DSS] | drug sensitivity score (OVCAR8; co-cultured fibroblast: WI38) [DSS] | drug sensitivity score (OVCAR8; [2]) [DSS]
CN(Cc1cnc2nc(N)nc(N)c2n1)c1ccc(C(=O)N[C@@H](CCC(=O)O)C(=O)O)cc1 [Methotrexate] | 5.9 | 0 | 19.7 | 12.3 | 12.4 | 27.7
C[C@H]1C[C@@H]2[C@H]([C@@H](O)C[C@@]3(C)[C@H]2CC[C@]3(O)C(=O)CO)[C@@]2(C)C=CC(=O)C=C12 [Methylprednisolone] | 0 | 0 | 9.8 | 0 | 0 | 8.1
CO[C@@H]1[C@H](N(C)C(=O)c2ccccc2)C[C@H]2O[C@]1(C)n1c3ccccc3c3c4c(c5c6ccccc6n2c5c31)C(=O)NC4 [Midostaurin] | 16.2 | 14.8 | 11.6 | 13.3 | 16.5 | 13
CNC(=O)c1nn(C)c2c1C(C)(C)Cc1cnc(Nc3ccc(N4CCN(C)CC4)cc3)nc1-2 [Milciclib] | 11.2 | 9.8 | 10 | 13.9 | 12.3 | 11.4
CCCCCCCCCCCCCCCCOP(=O)([O-])OCC[N+](C)(C)C [Miltefosine] | 4.4 | 7.4 | 5 | 8.4 | 7.3 | 5.7
CO[C@@]12[C@H](COC(N)=O)C3=C(C(=O)C(C)=C(N)C3=O)N1C[C@@H]1N[C@@H]12 [Mitomycin C] | 0 | 0 | 12.4 | 4.2 | 0.8 | 3.1
Clc1ccc(C(c2ccccc2Cl)C(Cl)Cl)cc1 (centres undefined) [Mitotane] | 0 | 0 | 0 | 0 | 0 | 0
O=C1c2c(O)ccc(O)c2C(=O)c2c(NCCNCCO)ccc(NCCNCCO)c21 [Mitoxantrone] | 17.1 | 13.3 | 23.6 | 20.4 | 17 | 18.1
CCS(=O)(=O)Nc1ccc(Oc2ccc(F)cc2F)c(-c2cn(C)c(=O)c3[nH]ccc23)c1 [Mivebresib] | 22.6 | 21.7 | 17.5 | 35.4 | 26.9 | 30.9
Nc1ccccc1NC(=O)c1ccc(CNc2nccc(-c3cccnc3)n2)cc1 [Mocetinostat] | 10.4 | 13.9 | 13.7 | 14 | 19.3 | 21.7
CCNC(=O)C[C@@H]1N=C(c2ccc(Cl)cc2)c2cc(OC)ccc2-n2c(C)nnc21 [Molibresib] | 6.5 | 9.9 | 6.7 | 12.2 | 5.8 | 13.6
N#CCNC(=O)c1ccc(-c2ccnc(Nc3ccc(N4CCOCC4)cc3)n2)cc1 [Momelotinib] | 7.5 | 10.1 | 7.6 | 11.3 | 10.9 | 10.1
CC1(C)CNc2cc(NC(=O)c3cccnc3NCc3ccncc3)ccc21 [Motesanib] | 0.3 | 0.2 | 0 | 0 | 1 | 2
CCCN(CCC)C(=O)C1=Cc2ccc(-c3ccc(C(=O)N4CCCC4)cc3)cc2N=C(N)C1 [Motolimod] | 1.3 | 0 | 1 | 0 | 0 | 2.4
FC(F)(F)c1ccc(/C=C/c2nc(COc3ccc(CCCCn4ccnn4)cc3)co2)cc1 [Mubritinib] | 5.6 | 0 | 0 | 16.9 | 0 | 5.5
Cc1cc(OCc2nnc(SC3CCCC3)n2-c2cccnc2)ccc1-c1ccc(S(C)(=O)=O)cc1 [NMS-873] | 9 | 9 | 8.9 | 5.8 | 4.7 | 10.3
COc1ccc(-c2ccc3ncc4c(c3c2)n(-c2ccc(N3CCNCC3)c(C(F)(F)F)c2)c(=O)n4C)cn1 [NVP-BGT226] | 18.2 | 19.5 | 18.3 | 19.5 | 12 | 21.7
Cc1ccc(C(=O)Nc2cccc(C(F)(F)F)c2)cc1Nc1nc(-c2cccnc2)nc2c1cnn2C [NVP-BHG712] | 5.8 | 6.7 | 8.9 | 0 | 6.8 | 7.5
COc1cc2c(cc1OC(C)C)[C@H](c1ccc(Cl)cc1)N(c1ccc(N(C)C[C@H]3CC[C@H](N4CCN(C)C(=O)C4)CC3)cc1)C(=O)C2 [NVP-CGM097] | 7.7 | 3.4 | 5.4 | 10.1 | 11.1 | 3.5
